Laboratory results reported in US20070259837A1, “Use of Non-Glucocorticoid Steroids for the Treatment of Muscular Dystrophy” (SANTHERA PHARMACEUTICALS (SCHWEIZ) AG, priority 2004, published 2007).
Read-outs that look alike come from different tables or passages of the source.

Experiments:
[1] = test system: utrophin protein in human muscle cells derived from DMD patients; assay: Cell-based ELISA for normalized utrophin protein level in primary human myotube cultures; details: for % UTR vs. PDN (normalized utrophin protein as % of PDN-treated sister cultures): same experiment; for activity at 0.5 µM: Myotube, read-out: % UTR vs. DMSO (normalized utrophin protein over DMSO-solvent treated control)
Experimental: The method used to detect and determine utrophin-inducing activity of non-glucocorticoid steroids has been described previously (Courdier-Fruh, I., Barman, L., Briguet, A. & Meier, T.; 2002, Neuromuscul. Disord.; 12 Suppl:S95). Briefly, primary human muscle cell cultures were prepared according to standard protocols (Askanas V, Kwan H, Alvarez R B, Engel W K, Kobayashi T, Martinuzzi A, Hawkins E F., 1987, J Neurocytol., 16:523-537). Test compounds and the glucocorticoid 6α-methylprednisolone-21 sodium succinate (Pharmacia & Upjohn; Solu-Medrol®, PDN) as reference compound were applied at 500 nM final concentration as soon as myoblasts started to differentiate into myotubes. Incubation with the test compound was ended as soon as well differentiated myotubes have formed, typically resulting in an incubation time with a test compound for 3-7 days.
Normalized concentrations of utrophin protein in human muscle cells cultured in microtiter plates were determined by a cell-based enzyme-linked immunosorbent assay (ELISA) procedure that allows a successive readout for the cell density and utrophin protein level. For calibration, the cell density and differentiation was determined by absorbance measurements of the total dehydrogenase enzyme activity in each well using the colorimetric CellTiter 96®AQ One Solution Reagent Proliferation Assay (Promega) according to the manufacturer's recommendation. Subsequently, cells were fixed, washed, permeabilized with 0.5% (v/v) Triton X-100 and unspecific antibody binding-sites were blocked by standard procedures. Utrophin protein levels were determined immunologically with utrophin-specific primary antibodies (mouse monoclonal antibody to the amino terminal portion of utrophin, NCL-DRP2, Novocastra Laboratories) and with appropriate peroxidase-coupled secondary antibodies using QuantaBlu™ Fluorogenic Peroxidase Substrate Kit (Pierce) for detection. Fluorescence measurements were carried out with a multilabel counter (Wallac) at λex=325 nm and at λem=420 nm. The primary readout of this signal is presented in arbitrary units. For calibration, the arbitrary units representing the relative utrophin protein content of each well were divided by the corresponding cell-titer absorbance value to correct for cell density. For comparison between experiments, the cell-titer corrected readout for utrophin protein content in each well was expressed in percent of solvent treated control cultures (set to 100%). PDN was included in all experiments as reference glucocorticoid, N=3-5 for each compound tested.
Non-glucocorticoid test compounds, applied in a concentration of 500 nM, were regarded as “positive” in case the increase in the level of utrophin protein was at least 20% (mean value) over control cultures treated with the appropriate dilution of DMSO solvent as control and containing no test compound.
A range of different pharmaceutical compounds were tested for their ability to increase levels of utrophin protein in primary human myotube cultures. The cell-based ELISA protocol used to detect the level of utrophin protein is provided above and described in Courdier-Fruh, I., Barman, L., Briguet, A. & Meier, T, 2002, Neuromuscul. Disord.: 12, Suppl:S95. Briefly, fixed and permeabilized human muscle cells derived from DMD patients and cultured in 96-well cell culture plates were incubated with antibodies specific for utrophin at a dilution of 1:1'000 in blocking solution (phosphate buffered saline (PBS) supplemented with 2% fetal calf serum and 1% bovine serum albumin) for 10-15 hours at 4° C. Following several washing steps with 0.1% Triton X-100 in PBS, peroxidase-coupled secondary antibodies diluted 1:3'000 in blocking solution were applied in each well for 1-2 hours at room temperature. Signal detection, data acquisition and normalization was performed as described above and in Courdier-Fruh, I., Barman, L., Briguet, A. & Meier, T, 2002, Neuromuscul. Disord.: 12, Suppl:S95. […]

[2] = test system: utrophin protein in human muscle cells derived from DMD patients; details: cited from earlier work; for increase of utrophin protein content in human muscle cells (reported for glucocorticoids): Courdier-Fruh et al. 2002
[3] = 500 nM compound, human muscle cultures, mean value, N=3-6

| Compound | % UTR vs. PDN (normalized utrophin protein as % of PDN-treated sister cultures) [1, 3] [%] | activity at 0.5 µM ([1]; Homo sapiens) [%] | other results |
| --- | --- | --- | --- |
| C[C@]12CCC3c4ccc(OCc5ccccc5)cc4CCC3C1C[C@@H](O)[C@@H]2O (stereo partly drawn) [Example 72] | 105 | 132 |  |
| C[C@]12CCC3c4ccc(OC(=O)c5ccccc5)cc4CCC3C1CC[C@@H]2O (stereo partly drawn) [Example 73] | 105 |  | activity at 0.5 µM [1, 3]: 132% |
| C[C@]12CCC3c4ccc(OC(=O)c5ccccc5)cc4CCC3C1CCC2=O (stereo partly drawn) [Example 74] | 103 | 124 |  |
| CCC(=O)Oc1ccc2c(c1)CCC1C2CC[C@@]2(C)C1C[C@@H](OC(=O)CC)[C@@H]2OC(=O)CC (stereo partly drawn) [Example 75] | 102 | 131 |  |
| CC(=O)Oc1ccc2c(c1)CCC1C2CC[C@]2(C)C(=O)CCC12 (stereo partly drawn) [Example 76, Estrone acetate] | 102 | 129 |  |
| CC(=O)O[C@H]1CCC2C3CCc4cc(O)ccc4C3CC[C@@]21C (stereo partly drawn) [Example 77] | 102 | 128 |  |
| C[C@]12CCC3c4ccc(OC(=O)c5ccccc5)cc4CCC3C1C[C@@H](O)[C@@H]2O (stereo partly drawn) [Example 78] | 99 | 124 |  |
| COc1ccc2c(c1)CCC1C2CC[C@@]2(C)C1CC[C@]2(C)O (stereo partly drawn) [Example 79] | 98 | 126 |  |
| C[C@]12CCC3c4ccc(O)cc4C=CC3C1CCC2=O (stereo partly drawn) [Example 80] | 96 |  | activity at 0.5 µM [1, 3]: 125% |
| C[C@]12C(=CCC1C1=CC(=O)OC1)C1CC[C@@H]3C[C@@H](O)CC[C@]3(C)C1C[C@H]2O (stereo partly drawn) [Example 81] | 103 | 129 |  |
| C[C@]12CCC3C(CC[C@]4(O)C[C@@H](O)CC[C@]34C=O)[C@@]1(O)CCC2C1=CC(=O)OC1 (stereo partly drawn) [Example 82] | 101 | 122 |  |
| CC(=O)O[C@@H]1C[C@]2(C)C(C3=CC(=O)OC3)CC[C@]2(O)C2CC[C@@H]3C[C@@H](O)CC[C@]3(C)C21 (stereo partly drawn) [Example 83] | 99 | 121 |  |
| C[C@]12CCC(=O)C[C@H]1CCC1C2C(=O)C[C@]2(C)C(C3=CC(=O)OC3)CC[C@]12O (stereo partly drawn) [Example 84] | 98 | 123 |  |
| C[C@]12C[C@@H](O)C3C(CC[C@@H]4C[C@@H](O)CC[C@]34C)C1=CCC2C1=CC(=O)OC1 (stereo partly drawn) [Example 85] | 99 | 120 |  |
| C[C@H]1C[C@@H]2[C@H]([C@@H](O)C[C@@]3(C)[C@H]2CC[C@]3(O)C(=O)COC(=O)CCC(=O)[O-])[C@@]2(C)C=CC(=O)C=C12.[Na+] [PDN, 6α-methylprednisolone-21 sodium succinate, reference compound] |  |  | utrophin protein levels normalized to cell density (UTR, relative units) compared to solvent-treated control (DMSO) ([1]; human DMD-patient derived muscle cells, 500 nM, FIG. 1 / FIG. 2, N=5-6): up to 200%; inhibition of PDN-mediated utrophin increase by RU38486 ([2]; simultaneous exposure to RU38468, previous experiments (Courdier-Fruh 2002)): could be inhibited |
| C[C@@H]1C[C@H]2[C@@H]3CCC4=CC(=O)C=C[C@]4(C)[C@@]3(F)[C@@H](O)C[C@]2(C)[C@@]1(O)C(=O)CO [dexametasone] |  |  | increase of utrophin protein content in human muscle cells (reported for glucocorticoids) [2]: increase of utrophin protein content |
| CC1(C)O[C@@H]2C[C@H]3[C@@H]4C[C@H](F)C5=CC(=O)C=C[C@]5(C)[C@@]4(F)[C@@H](O)C[C@]3(C)[C@]2(C(=O)CO)O1 [fluocinolone acetonide] |  |  | increase of utrophin protein content in human muscle cells (reported for glucocorticoids) [2]: increase of utrophin protein content |
| CC1(C)O[C@@H]2C[C@H]3[C@@H]4CCC5=CC(=O)CC[C@]5(C)[C@@]4(F)[C@@H](O)C[C@]3(C)[C@]2(C(=O)CCl)O1 [halcinonide] |  |  | increase of utrophin protein content in human muscle cells (reported for glucocorticoids) [2]: increase of utrophin protein content |
| C[C@H]1C[C@@H]2[C@H]([C@@H](O)C[C@@]3(C)[C@H]2CC[C@]3(O)C(=O)CO)[C@@]2(C)C=CC(=O)C=C12 [α-methylprednisolone] |  |  | increase of utrophin protein content in human muscle cells (reported for glucocorticoids) [2]: increase of utrophin protein content |
| Norethisterone [Example 40] | 106 |  | % UTR vs. DMSO (normalized utrophin protein over DMSO-solvent treated control) [1, 3]: 134% |
